Reference: patent US20180078576A1, “SULPHATED XYLANS FOR TREATMENT OR PROPHYLAXIS OF RESPIRATORY DISEASES” (Paradigm Biopharmaceuticals Limited, priority 2007, published 2018)
Marks after values point to notes of the source that are not given here.

What was measured:
[1] = tested on: Guinea-pigs sensitized to ovalbumin; test: Guinea pig model of asthma, airway hyper-reactivity 24 h after OVA challenge; type: in vivo; conditions: Dexamethasone 15 mg/kg, glycan compounds 10 mg/kg, intratracheal microspray
Description: A guinea pig model of asthma was used. Guinea-pigs (8 per group) were sensitized to ovalbumin by two intraperitoneal injections of ovalbumin (grade V, 20 μg) in aluminium hydroxide gel on Days 1 and 11. On day 20 (24 hours prior to assessing airway hyper-reactivity (AHR)) each animal received a challenge dose of OVA—this took the form of a 1 hour aerosol exposure of OVA (10 μg). The negative control animals received, no sensitization and no challenge. The positive controls were sensitized and challenged but were either given no further treatment or were treated with vehicle (saline). Test compounds (PPS and the sulfated xylan pentasaccharide) and vehicle were administered by intratracheal administration as an aqueous microspray using a Penn Century device. The device used was the FMJ250 high pressure syringe and a 1A-1C microspray delivery tube. The particle size delivery goes up to 32 μm. During the study the volume delivered was 100 ul for all test formulations. The test compounds were administered 30 min before challenge with OVA. The animals underwent surgery 24 hours after challenge to insert a cannula into the trachea, the cannula was connected to the instrumentation which measured pressure and changes in airflow. After surgery the animals were allowed to stabilize for 10 min before baseline readings were taken. Bronchoconstriction was evoked with aerosolized methacholine (10 mg/ml and 30 mg/ml) for 20 seconds. The difference between baseline readings and that obtained after methacholine were used to calculate Cdyn and RL. Thus, measurements of lung function were taken approximately 25 hours after the drug was administered. Both pentosan polysulfate and the sulfated xylan pentasaccharide when administered at 10 mg/kg were effective in reducing the airway hyper-reactivity readings. Their efficacy was approximately equivalent to that usually seen with 7.5 mg/kg of dexamethasone in this model.

[2] = biological target: T1, recombinant human IL-5 (rhIL-5) (Homo sapiens, UniProt P05113); test: BIAcore inhibition of IL-5 binding to immobilized heparin; conditions: BIAcore chip, titration, FIG. 3B
T1 construct: made in house; host or cells: baculovirus expression system
T1 sequence (P05113 20-134): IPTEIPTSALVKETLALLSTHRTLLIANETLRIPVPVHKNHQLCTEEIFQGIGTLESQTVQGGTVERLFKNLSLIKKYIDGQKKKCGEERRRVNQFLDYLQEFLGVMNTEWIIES
Text: (§1) The optical phenomenon of surface plasmon resonance is used to monitor physical interactions between molecules. Passing a solution of a potential protein ligand (e.g. IL-4, IL-5 or eotaxin) over a sensor surface to which a target (e.g. heparin) is coupled monitors the real-time binding of protein ligands to the immobilized target. Detection is achieved by measuring refractive index changes very close to the sensor surface. When the refractive index is altered, the angle at which plasmon resonance occurs changes and this change directly correlates with the amount of protein interacting with the surface. A BIAcore 2000 is conveniently used. […]
(§2) Biotinylated heparin is immobilized on the biosensor chip. […] Solutions containing potential protein ligands of interest are injected over the sensor chip surface, and the binding is measured in real time (Fernig, In: Proteoglycan protocols, Ed. R. V. Iozzo, Humana Press, Totowa, N.J., USA, 2001). Baculovirus expressed recombinant human IL-4 (rhIL-4) and baculovirus expressed recombinant human IL-5 (rhIL-5) readily bind to heparin immobilized by this method (see PCT/AU2005/000551). […] Similarly, recombinant human eotaxin (CCL11) expressed in E. coli binds readily to immobilized heparin and binding is specific as there is little eotaxin binding to sensor chips lacking heparin. […]

[3] = biological target: T2, Human leukocyte elastase (Homo sapiens, UniProt P08246); test: Elastase assay with fluorogenic substrate; type: biochemical; conditions: fluorogenic substrate MeOSuc-Ala-Ala-Pro-Val-amido-methylcoumarin, pH 7.4, 37° C., 60 minutes; read-out: IC50, inhibition of human leukocyte elastase activity
T2 sequence (P08246 30-267): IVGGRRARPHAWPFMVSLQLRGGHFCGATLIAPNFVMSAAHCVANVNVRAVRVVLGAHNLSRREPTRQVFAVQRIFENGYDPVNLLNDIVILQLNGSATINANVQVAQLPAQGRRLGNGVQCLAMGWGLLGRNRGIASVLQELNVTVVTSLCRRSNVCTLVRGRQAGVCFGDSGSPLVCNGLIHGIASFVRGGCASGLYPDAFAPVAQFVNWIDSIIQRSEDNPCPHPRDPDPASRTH
Description: Elastase is a protein that is a potential target for the treatment of COPD. Elastase assays were performed in 96-well plastic microplates for easy quantification by the fluorescent plate reader. Human leukocyte elastase (5 nM/well) was incubated in the presence of absence of pentosan polysulfate, or other sulfated polysaccharides, with the fluorogenic substrate MeOSuc-Ala-Ala-Pro-Val-amido-methylcoumarin (20 μM/well) in a sodium phosphate buffer, pH 7.4. The mixture was incubated at 37° C. for 60 minutes before the reaction was stopped by the addition of 10 μl/well of […] acetic acid and the mixture transferred to a 96-well microplate with fluorescence being measured using an excitation wavelength of 355 nm and an emission wavelength of 460 nm. Various concentrations of inhibitors were used to allow the calculation of the concentration of polysaccharide required to inhibit enzyme activity by 50% (IC50).

[4] = biological target: T3, recombinant human eotaxin (CCL11) (Homo sapiens, UniProt P51671); test: BIAcore inhibition of eotaxin-1 binding to immobilized heparin; conditions: BIAcore chip, FIG. 3D
T3 construct: host or cells: E. coli
Text: as §1, §2

T3 sequence (P51671 24-97): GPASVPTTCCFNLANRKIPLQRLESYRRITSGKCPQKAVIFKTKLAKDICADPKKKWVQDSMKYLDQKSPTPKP

Row | Molecule | Cdyn, % increase from that of the positive control ([1]; MCh 10 mg/ml) [% **] | RL, % decrease from that of the positive control ([1]; MCh 10 mg/ml) [% **] | Cdyn, % increase from that of the positive control ([1]; MCh 30 mg/ml) [% **^] | RL, % decrease from that of the positive control ([1]; MCh 30 mg/ml) [% **] | IC50 [2] [µM] | IC50 [3] [µM] | IC50 [4] [µM]
1 | C[C@@H]1C[C@H]2[C@@H]3CCC4=CC(=O)C=C[C@]4(C)[C@@]3(F)[C@@H](O)C[C@]2(C)[C@@]1(O)C(=O)CO [Dexamethasone] | 76.5 | 93.9 | 84.8 | 86 |  |  | 
2 | heparin |  |  |  |  | 0.03 to 0.1 | ~0.2 | ~0.16
